Earlier results in US6635271B1, “Method for increasing the concentration of conjugated linoleic acid in milk and/or tissue fat of a ruminant” (Valio Oy, priority 1997, dated 2003).

Details: vaccenic acid fed to mice (Santora et al. 1998)

## CCCCCC/C=C\CCCCCCCCCC(=O)O [vaccenic acid, trans-11 isomer of octadecenoic acid]
  tissue fat CLA concentration: tripled
